Test results: patent US20230331803A1, “CO-AGONISTS OF THE GLP-1 AND AMYLIN RECEPTORS” (priority 2020, published 2023)

How the values were obtained:
human GLP-1 receptor = biological target: T1, human GLP-1 receptor (Homo sapiens, UniProt P43220); assay: Human GLP-1 receptor in vitro potency assay (CRE-luciferase reporter, BHK cells); format: cell-based; conditions: Table 4a; BHK cells expressing human GLP-1R, CRE-Luc, 3 hours; read-out: Human GLP-1R potency [EC50 (pM)]
T1 construct: expressed in transfected cells; host or cells: BHK (Baby Hamster Kidney) cells, clone BHK 467-12A KZ-10, stably transfected, with CRE-luciferase reporter
Protocol: It is thus possible to measure GLP-1 receptor activity using a CRE-luciferase reporter gene introduced into Baby Hamster Kidney (BHK) cells co-expressing the GLP-1 receptor.
Cells were aliquoted and stored at -180° C. until use.
Plates were sealed and incubated at room temperature with gentle shaking for 30 minutes while protected from light. Luminescence was detected on a luminescence plate reader e.g. a Synergy 2 (BioTek).

[1] = biological target: T2, human amylin receptor (hAmyR3) (Homo sapiens, UniProt O60896+P30988); assay: Human amylin receptor in vitro potency assay (CRE-luciferase reporter, BHK cells); format: cell-based; conditions: Table 4a; BHK hAmyR3/CRE-Luc cells, 3 hours; read-out: Human AmyR3 potency [EC50 (pM)];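 further: BHK cells expressing human calcitonin receptor plus RAMP3 (amylin-3 receptor) with a CRE-luciferase reporter, agonist activity read as luminescence from cAMP-driven transcription, 7-point serial dilutions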
T2 construct: host or cells: BHK cells (Hollex-1 line: human calcitonin receptor (a) + CRE-Luc), further transfected with human RAMP3
T2 sequence (P30988 25-474): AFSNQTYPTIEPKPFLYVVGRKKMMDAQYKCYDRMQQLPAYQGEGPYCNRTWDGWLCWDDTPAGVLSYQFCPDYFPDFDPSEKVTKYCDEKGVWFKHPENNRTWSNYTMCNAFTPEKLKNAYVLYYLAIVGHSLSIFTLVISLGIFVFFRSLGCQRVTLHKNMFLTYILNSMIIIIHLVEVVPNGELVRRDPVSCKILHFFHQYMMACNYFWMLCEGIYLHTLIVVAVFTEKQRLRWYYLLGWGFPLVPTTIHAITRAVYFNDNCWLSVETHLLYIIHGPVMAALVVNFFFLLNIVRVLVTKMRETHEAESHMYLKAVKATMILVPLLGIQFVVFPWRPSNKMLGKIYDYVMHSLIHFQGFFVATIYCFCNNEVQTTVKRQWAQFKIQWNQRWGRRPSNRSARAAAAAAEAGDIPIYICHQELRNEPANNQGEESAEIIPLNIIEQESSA
T2 sequence (O60896 24-148): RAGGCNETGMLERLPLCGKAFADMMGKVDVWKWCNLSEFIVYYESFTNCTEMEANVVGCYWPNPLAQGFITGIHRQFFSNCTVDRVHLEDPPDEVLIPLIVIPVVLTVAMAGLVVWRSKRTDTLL

T1 sequence (P43220 24-463): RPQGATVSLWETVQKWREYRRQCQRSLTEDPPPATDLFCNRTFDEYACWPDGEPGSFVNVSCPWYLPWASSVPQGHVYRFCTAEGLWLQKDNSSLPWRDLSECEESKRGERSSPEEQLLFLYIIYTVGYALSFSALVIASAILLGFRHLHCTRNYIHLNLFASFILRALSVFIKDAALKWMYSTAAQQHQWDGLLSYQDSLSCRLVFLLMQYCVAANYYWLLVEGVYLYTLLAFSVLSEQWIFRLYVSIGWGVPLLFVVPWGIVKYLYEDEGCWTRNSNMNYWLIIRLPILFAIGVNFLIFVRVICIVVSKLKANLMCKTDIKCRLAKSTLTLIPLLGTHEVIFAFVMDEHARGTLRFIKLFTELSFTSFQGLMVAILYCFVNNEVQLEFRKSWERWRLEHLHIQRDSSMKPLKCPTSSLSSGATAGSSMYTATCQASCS

EC50 (human GLP-1 receptor) [pM]	EC50 [1] [pM]	Structure (SMILES)
84.5	43.9	CC[C@H](C)[C@H](NC(=O)[C@H](Cc1ccccc1)NC(=O)[C@H](CCC(=O)O)NC(=O)[C@H](CCCCNC(=O)COCCOCCNC(=O)COCCOCCNC(=O)CC[C@H](NC(=O)CCCCCCCCCCCCCCC(=O)O)C(=O)O)NC(=O)[C@H](C)NC(=O)[C@H](C)NC(=O)[C@H](CCC(N)=O)NC(=O)CNC(=O)[C@H](CCC(=O)O)NC(=O)[C@H](CC(C)C)NC(=O)[C@H](Cc1ccc(O)cc1)NC(=O)[C@H](CO)NC(=O)[C@H](CO)NC(=O)[C@@H](NC(=O)[C@H](CC(=O)O)NC(=O)[C@H](CO)NC(=O)[C@@H](NC(=O)[C@H](Cc1ccccc1)NC(=O)[C@@H](NC(=O)CNC(=O)[C@H](CCC(=O)O)NC(=O)C(C)(C)NC(=O)[C@@H](N)Cc1c[nH]cn1)[C@@H](C)O)[C@@H](C)O)C(C)C)C(=O)N[C@@H](C)C(=O)N[C@@H](Cc1c[nH]c2ccccc12)C(=O)N[C@@H](CC(C)C)C(=O)N[C@H](C(=O)N[C@@H](CCCNC(=N)N)C(=O)NCC(=O)N[C@@H](CCCCNC(=O)COCCOCCNC(=O)COCCOCCNC(=O)CC[C@H](NC(=O)CCCCCCCCCCCCCCC(=O)O)C(=O)O)C(=O)NCC(=O)NCC(=O)NCC(=O)N[C@@H](CCC(=O)O)C(=O)N[C@@H](C)C(=O)N[C@@H](CO)C(=O)N[C@@H](CCC(=O)O)C(=O)N[C@@H](CC(C)C)C(=O)N[C@@H](CO)C(=O)N[C@H](C(=O)N[C@@H](C)C(=O)N[C@@H](C)C(=O)N[C@@H](CC(C)C)C(=O)NCC(=O)N[C@@H](CCCNC(=N)N)C(=O)N[C@@H](CC(C)C)C(=O)N[C@@H](CO)C(=O)N[C@@H](C)C(=O)N[C@@H](CCC(=O)O)C(=O)N[C@@H](CC(C)C)C(=O)N[C@@H](Cc1c[nH]cn1)C(=O)N[C@@H](CCC(=O)O)C(=O)N[C@@H](CC(C)C)C(=O)N[C@@H](C)C(=O)N[C@H](C(=O)N[C@@H](CC(C)C)C(=O)N1CCC[C@H]1C(=O)N[C@@H](CCCNC(=N)N)C(=O)N[C@H](C(=O)N[C@@H](CCC(=O)O)C(=O)N[C@H](C(=O)NCC(=O)N[C@@H](CO)C(=O)NCC(=O)N[C@@H](CO)C(=O)N1CCC[C@H]1C(N)=O)[C@@H](C)O)[C@@H](C)O)[C@@H](C)O)[C@@H](C)O)C(C)C [Compound 0075]
1.1	30.8	CC[C@H](C)[C@H](NC(=O)[C@H](Cc1ccccc1)NC(=O)[C@H](CCCCNC(=O)COCCOCCNC(=O)COCCOCCNC(=O)CC[C@H](NC(=O)CCCCCCCCCCCCCCC(=O)O)C(=O)O)NC(=O)[C@H](CCCNC(=N)N)NC(=O)[C@H](C)NC(=O)[C@H](C)NC(=O)[C@H](CCC(N)=O)NC(=O)[C@H](CCC(=O)O)NC(=O)[C@H](CCC(=O)O)NC(=O)[C@H](CC(C)C)NC(=O)[C@H](Cc1ccc(O)cc1)NC(=O)[C@H](CO)NC(=O)[C@H](CO)NC(=O)[C@@H](NC(=O)[C@H](CC(=O)O)NC(=O)[C@H](CO)NC(=O)[C@@H](NC(=O)[C@H](Cc1ccccc1)NC(=O)[C@@H](NC(=O)CNC(=O)[C@H](CCC(=O)O)NC(=O)C(C)(C)NC(=O)[C@@H](N)Cc1c[nH]cn1)[C@@H](C)O)[C@@H](C)O)C(C)C)C(=O)N[C@@H](CCC(=O)O)C(=O)N[C@@H](Cc1c[nH]c2ccccc12)C(=O)N[C@@H](CC(C)C)C(=O)N[C@H](C(=O)N[C@@H](CCCNC(=N)N)C(=O)NCC(=O)N[C@@H](CCCCNC(=O)COCCOCCNC(=O)COCCOCCNC(=O)CC[C@H](NC(=O)CCCCCCCCCCCCCCC(=O)O)C(=O)O)C(=O)NCC(=O)N[C@@H](CCC(=O)O)C(=O)NCC(=O)N[C@@H](CCC(N)=O)C(=O)N[C@@H](CCC(=O)O)C(=O)N1CCC[C@H]1C(=O)NCC(=O)NCC(=O)N[C@@H](C)C(=O)N[C@@H](CO)C(=O)N[C@@H](CCC(=O)O)C(=O)N[C@@H](CC(C)C)C(=O)N[C@@H](CO)C(=O)N[C@H](C(=O)N[C@@H](C)C(=O)N[C@@H](C)C(=O)N[C@@H](CC(C)C)C(=O)NCC(=O)N[C@@H](CCCNC(=N)N)C(=O)N[C@@H](CC(C)C)C(=O)N[C@@H](CO)C(=O)N[C@@H](C)C(=O)N[C@@H](CCC(=O)O)C(=O)N[C@@H](CC(C)C)C(=O)N[C@@H](Cc1c[nH]cn1)C(=O)N[C@@H](CCC(=O)O)C(=O)N[C@@H](CC(C)C)C(=O)N[C@@H](C)C(=O)N[C@H](C(=O)N[C@@H](CC(C)C)C(=O)N1CCC[C@H]1C(=O)N[C@@H](CCCNC(=N)N)C(=O)N[C@H](C(=O)N[C@@H](CCC(=O)O)C(=O)N[C@H](C(=O)NCC(=O)N[C@@H](CO)C(=O)NCC(=O)N[C@@H](CO)C(=O)N1CCC[C@H]1C(N)=O)[C@@H](C)O)[C@@H](C)O)[C@@H](C)O)[C@@H](C)O)C(C)C [Compound 0105]
27.9	24.4	CC[C@H](C)[C@H](NC(=O)[C@H](Cc1ccccc1)NC(=O)[C@H](CCC(=O)O)NC(=O)[C@H](CCCNC(=N)N)NC(=O)[C@H](C)NC(=O)[C@H](C)NC(=O)[C@H](CCC(N)=O)NC(=O)[C@H](CCC(=O)O)NC(=O)[C@H](CCC(=O)O)NC(=O)[C@H](CC(C)C)NC(=O)[C@H](Cc1ccc(O)cc1)NC(=O)[C@H](CO)NC(=O)[C@H](CO)NC(=O)[C@@H](NC(=O)[C@H](CC(=O)O)NC(=O)[C@H](CO)NC(=O)[C@@H](NC(=O)[C@H](Cc1ccccc1)NC(=O)[C@@H](NC(=O)CNC(=O)[C@H](CCC(=O)O)NC(=O)C(C)(C)NC(=O)CCc1c[nH]cn1)[C@@H](C)O)[C@@H](C)O)C(C)C)C(=O)N[C@@H](C)C(=O)N[C@@H](Cc1c[nH]c2ccccc12)C(=O)N[C@@H](CC(C)C)C(=O)N[C@H](C(=O)N[C@@H](CCCNC(=N)N)C(=O)NCC(=O)N[C@@H](CCCNC(=N)N)C(=O)N[C@@H](CCCCNC(=O)CCCS(=O)(=O)NC(=O)CCCCCCCCCCCCCCCCc1nnn[nH]1)C(=O)N[C@@H](CCC(=O)O)C(=O)N[C@@H](C)C(=O)N[C@@H](CO)C(=O)N[C@@H](CCC(=O)O)C(=O)N[C@@H](CC(C)C)C(=O)N[C@@H](CO)C(=O)N[C@H](C(=O)N[C@@H](C)C(=O)N[C@@H](C)C(=O)N[C@@H](CC(C)C)C(=O)NCC(=O)N[C@@H](CCCNC(=N)N)C(=O)N[C@@H](CC(C)C)C(=O)N[C@@H](CO)C(=O)N[C@@H](C)C(=O)N[C@@H](CCC(=O)O)C(=O)N[C@@H](CC(C)C)C(=O)N[C@@H](Cc1c[nH]cn1)C(=O)N[C@@H](CCC(=O)O)C(=O)N[C@@H](CC(C)C)C(=O)N[C@@H](C)C(=O)N[C@H](C(=O)N[C@@H](CC(C)C)C(=O)N1CCC[C@H]1C(=O)N[C@@H](CCCNC(=N)N)C(=O)N[C@H](C(=O)N[C@@H](CCC(=O)O)C(=O)N[C@H](C(=O)NCC(=O)N[C@@H](CO)C(=O)NCC(=O)N[C@@H](CO)C(=O)N1CCC[C@H]1C(N)=O)[C@@H](C)O)[C@@H](C)O)[C@@H](C)O)[C@@H](C)O)C(C)C [Compound 0124]
6.3	8.5	CC[C@H](C)[C@H](NC(=O)[C@H](Cc1ccccc1)NC(=O)[C@H](CCC(=O)O)NC(=O)[C@H](CCCNC(=N)N)NC(=O)[C@H](C)NC(=O)[C@H](C)NC(=O)[C@H](CCC(N)=O)NC(=O)[C@H](CCC(=O)O)NC(=O)[C@H](CCC(=O)O)NC(=O)[C@H](CC(C)C)NC(=O)[C@H](Cc1ccc(O)cc1)NC(=O)[C@H](CO)NC(=O)[C@H](CO)NC(=O)[C@H](CCCCNC(=O)COCCOCCNC(=O)COCCOCCNC(=O)CC[C@H](NC(=O)[C@H]1CC[C@H](CNC(=O)CCCCCCCCCCCCCCCCCCC(=O)O)CC1)C(=O)O)NC(=O)[C@H](CC(=O)O)NC(=O)[C@H](CO)NC(=O)[C@@H](NC(=O)[C@H](Cc1ccccc1)NC(=O)[C@@H](NC(=O)CNC(=O)[C@H](CCC(=O)O)NC(=O)C(C)(C)NC(=O)[C@@H](N)Cc1c[nH]cn1)[C@@H](C)O)[C@@H](C)O)C(=O)N[C@@H](C)C(=O)N[C@@H](Cc1c[nH]c2ccccc12)C(=O)N[C@@H](CC(C)C)C(=O)N[C@H](C(=O)N[C@@H](CCCNC(=N)N)C(=O)NCC(=O)N[C@@H](CCCNC(=N)N)C(=O)NCC(=O)NCC(=O)NCC(=O)NCC(=O)N[C@@H](CCC(=O)O)C(=O)N[C@@H](C)C(=O)N[C@@H](CO)C(=O)N[C@@H](CCC(=O)O)C(=O)N[C@@H](CC(C)C)C(=O)N[C@@H](CO)C(=O)N[C@H](C(=O)N[C@@H](C)C(=O)N[C@@H](C)C(=O)N[C@@H](CC(C)C)C(=O)NCC(=O)N[C@@H](CCCNC(=N)N)C(=O)N[C@@H](CC(C)C)C(=O)N[C@@H](CO)C(=O)N[C@@H](C)C(=O)N[C@@H](CCC(=O)O)C(=O)N[C@@H](CC(C)C)C(=O)N[C@@H](Cc1c[nH]cn1)C(=O)N[C@@H](CCC(=O)O)C(=O)N[C@@H](CC(C)C)C(=O)N[C@@H](C)C(=O)N[C@H](C(=O)N[C@@H](CC(C)C)C(=O)N1CCC[C@H]1C(=O)N[C@@H](CCCNC(=N)N)C(=O)N[C@H](C(=O)N[C@@H](CCC(=O)O)C(=O)N[C@H](C(=O)NCC(=O)N[C@@H](CO)C(=O)NCC(=O)N[C@@H](CO)C(=O)N1CCC[C@H]1C(N)=O)[C@@H](C)O)[C@@H](C)O)[C@@H](C)O)[C@@H](C)O)C(C)C [Compound 0266]
